Data on 8 compounds can be found in patent US4034111A, “Compositions of and new uses for N-acylanilinobutyric acids” (Byk Gulden Lomberg Chemische Fabrik GmbH, priority 1974, dated 1977).

For assay [1], the system named is serum enzyme increase (GOT/GPT) after galactosamine. Briefly: Anti-hepatotoxic action: liver damage due to galactosamine, serum enzymes GOT/GPT. It counts as in vivo, rat (Sprague-Dawley, male). The conditions noted are these: rat, oral, as sodium salt, serum 24 hours after 200 mg/kg d-galactosamine hydrochloride i.p.; read-out: Anti-hepatotoxic action: inhibition of serum enzyme increase by 25 % (GOT/GPT), damage due to galactosamine (dose). How it is done: (§1) 5. The determination of the anti-hepatotoxic and hepatotropic effect, respectively, was carried out by damaging the liver with allyl alcohol or galactosamine.
(b) Damaging, due to galactosamine (galactosamine hepatitis) was carried out in accordance with the method described in Arzneimittelforschung 23 Nr. 1a, 159 (1973): Male Sprague-Dawley rats (220 to 300 g) received 200 mg/kg d-galactosamine hydrochloride (Merck, Darmstadt, article no. 4085) intraperitoneally (injection volume 2 ml/kg) 1 hour after oral administration of the compounds to be tested. 24 hours after the damage due to galactosamine a blood sample was taken from the vena orbitalis with slight ether narcosis. The serum enzymes were determined as described under a.

The subject of assay [2] is serum enzyme increase (GOT/GPT) after allyl alcohol. Briefly: Anti-hepatotoxic action: liver damage due to allyl alcohol, serum enzymes GOT/GPT. The class given is in vivo, rat (Sprague-Dawley, female). Conditions: rat, oral, as sodium salt, serum 18 hours after allyl alcohol; read-out: Anti-hepatotoxic action: inhibition of serum enzyme increase by 25 % (GOT/GPT), damage due to allyl alcohol (dose). The procedure: as §1
(a) Damaging due to allyl alcohol was carried out in accordance with the method of Renker et al. [Arzneimittelforschung, 22, 1009 (1972)] and of H. Rauen and Schriewer [Arzneimittelforschung, 21, 1194 (1971)]: female Sprague-Dawley-rats (250 to 300 g) received 3 ml/kg of 1.25 % allyl alcohol solution orally […] the compounds to be tested and the solvent (control) had also been administered orally. 18 hours after the damage due to allyl alcohol a blood sample was taken from the tail (0.5 to 0.7 ml) with slight ether narcosis. The serum enzymes GOT (glutamate oxalacetate transaminase) and GPT (glutamate pyruvate transminase) were determined with the help of the Boehringer Test Combination (No. 15955/56)-- micromethod.

The test system of assay [3] is Pancreas secretion. Briefly: Pancreas secretion (rat), i.d. administration. The class given is in vivo. Conditions: intraduodenal, as sodium salt; for ED (50% increase): Rattus norvegicus, read-out: Increase in pancreas secretion by 50 % maximum (dose); for minimal effective dose: read-out: Increase in pancreas secretion: significantly effective of [ ]. The procedure:
(§2) 1. Pancreas secretion (rat and cat) was examined along the lines of the method described by C. J. Dockray [J. Physiol., 225, 679, (1972)] for the rat and of that described by R. M. Case et al [J. Physiol., 223, 669, (1972)] for the cat.
(§3) The pancreas secretion and the bile of narcotized rats (female, 250 to 300 g, stomachs not empty; narcosis: 5 ml/kg of a 25 % urethane solution= 1.25 g/kg i.m.) and cats (both sexes, stomachs empty, 3 to 4 kg; narcosis: laughing gas and 60 mg/kg i.p. chloralose and 120 mg/kg i.p. urethane; permanent infusion of 0.4 to 2 E/kg/hour secretine= 1 to 6 ml/animal/hour,pylorus ligature) were separately transferred to the outside. After an initial period of about 2 hours compounds to be examined were administered intravenously to some and intraduodenally to other animals (volume of injection rat/cat 1 ml/kg). The volume and, respectively, the protein content (amylase, lipase, trypsine) of the fraction for 30 minutes and 15 minutes, respectively, were determined by conventional methods (Boehringer Test Combination 15899).

A further assay concerns stomach ulcers. The assay is described as follows: Anti-ulcerogenity: suppression of acetylsalicylic acid-induced stomach ulcers in rats. It counts as in vivo, rat (Sprague-Dawley, female). The conditions noted are these: 24 h, rat, oral, 30 min before 200 mg/kg acetylsalicylic acid, as sodium salt; for ED100: read-out: Suppression of the formation of stomach ulcers by 100 % (dose); for ED50: read-out: Suppression of the formation of stomach ulcers by 50% (dose). How it is done:
2. Anti-ulcerogenity was determined according to the method described in German Offenlegungsschrift DT-OS 2,118,200. Female Sprague-Dawley rats weighing about 200 g were kept on empty stomach for 24 hours. Then the compounds to be tested were administered orally in the form of their sodium salts in aqueous solution. After 30 minutes 200 mg/kg acetylsalicyclic acid (in 10 ml/kg of an 1% tylose suspension) were administered to cause stomach ulcers. Control groups received the corresponding amount of water instead of the sodium salt solutions. The ulcus rate was determined microscopically 24 hours after the administration of acetylsalicyclic acid.

Assay [4] deals with circulation of blood in internal organs (liver, pancreas). The assay is described as follows: Blood circulation through internal organs (liver, pancreas). The conditions noted are these: Felis catus, iv; cat, i.v. administration, as sodium salt; read-out: Increase in circulation of blood in internal organs (liver, pancreas), effective of. It counts as in vivo. The procedure: 4. The blood circulation through the liver was determined by the arterial blood supply (Art. hepatica) along the lines of the method described by Scholtholt (Habilitationsschrift, faculty of medicine, University of Dusseldorf (1969) "Experimental studies with regard to the blood circulation through the liver").

The test system of a further assay is heart force of the heart. The assay is described as follows: Heart force (left ventricle pressure course) in narcotized cats. The class given is in vivo. The conditions noted are these: Felis catus, iv; cat, i.v. administration, as sodium salt; read-out: Increase in heart force of the heart, effective of. The procedure: 3. The influence of the acylated anilinocarboxylic acids on heart force was determined along the lines of the method of W. Kroneberg et al. [Arzneimittelforschung, 22, 2 (1972)] by determination of the pressure course (isometrically) and pressure increase in the left heart ventricle upon intraveneous administration of the substance to narcotized cats.

In assay [5] the test system is Pancreas secretion. The assay is described as follows: Pancreas secretion (cat), pancreas liquid and protein (enzyme). The class given is in vivo. Conditions: Felis catus, as sodium salt. The procedure: as §2, §3

Read-outs that look alike come from different tables or passages of the source. A value given as a limit tells only on which side of the number the result lay.

With `COc1ccc(N(CCCC(=O)O)C(=O)c2ccccc2)cc1` [(2), N-benzoyl-γ-(p-anisidino)butyric acid], the ED25 in assay [1] is ~50 mg/kg. Further, the ED25 in assay [2] is 5 to 10 mg/kg. In the assay on Pancreas secretion [3], the ED (50% increase) was ~0.2 mg/kg and the minimal effective dose is 0.05 mg/kg. In addition, the ED100 in the assay on stomach ulcers amounted to 1.5 mg/kg.

With `COc1ccc(N(CCCC(=O)O)C(=O)c2ccc(Cl)cc2)cc1` [(3), N-(p-chlorobenzoyl)-γ-(p-anisidino)butyric acid], the ED25 is ~20 mg/kg in assay [1] and 5 to 10 mg/kg in assay [2]. The minimal effective dose in assay [4] is 1 to 5 mg/kg; with Pancreas secretion [3], 0.05 mg/kg; with heart force of the heart it was 1 mg/kg. The ED (50% increase) in the assay on Pancreas secretion [3] fell in the range of 1 to 5 mg/kg. In addition, in the assay on stomach ulcers, the ED50 lay within 1 to 5 mg/kg. Besides, the ED100 in the assay with stomach ulcers is ~10 mg/kg. Moreover, the ED (100% increase) was ~10 mg/kg in the assay on Pancreas secretion [5] (intraduodenal, i.d. administration, read-out: Increase in pancreas secretion by 100 % maximum: pancreas liquid (dose)); ~1 mg/kg in the assay with Pancreas secretion [5] (intraduodenal, i.d. administration, read-out: Increase in pancreas secretion by 100 % maximum: protein (enzyme) (dose)); < 10 mg/kg in the assay with Pancreas secretion [5] (iv, i.v. administration, read-out: Increase in pancreas secretion by 100 % maximum: protein (enzyme) (dose)).

As to `CCOc1ccc(N(CCCC(=O)O)C(=O)c2ccc(Cl)cc2)cc1` [(4), N-(p-chlorobenzoyl)-γ-(p-phenetidino)butyric acid], the ED25 in assay [1] and in assay [2] was ~10 mg/kg in each case. The values for the minimal effective dose (in assay [4]; with Pancreas secretion [3]; with heart force of the heart) were 1 to 5 mg/kg, 0.05 mg/kg and 1 mg/kg, respectively. Moreover, the ED (50% increase) in the assay on Pancreas secretion [3] lay in the range of 0.1 to 0.5 mg/kg. Moreover, the ED100 with stomach ulcers is ~15 mg/kg.

On to `COc1ccc(N(CCCC(=O)O)C(=O)c2ccc(Cl)cc2)cc1OC` [(7), N-(p-chlorobenzoyl)-γ-(3,4-dimethoxyanilino)butyric acid], for which the ED25 is ~20 mg/kg in assay [1] and 50 mg/kg in assay [2]. For the same compound, the values for the minimal effective dose (in assay [4]; in the assay with Pancreas secretion [3]; in the assay with heart force of the heart) were 1 mg/kg, ~0.1 mg/kg and 1 to 5 mg/kg, respectively. Further, the ED (50% increase) with Pancreas secretion [3] was ~1 mg/kg. Further, the ED100 in the assay with stomach ulcers is ~5 mg/kg.

In the case of `Cc1cccc(C)c1N(CCCC(=O)O)C(=O)c1ccccc1Cl` [(8), N-(o-chlorobenzoyl)-γ-(2,6-dimethylanilino)butyric acid], in assay [1], the ED25 was ~20 mg/kg. For the same compound, the minimal effective dose was determined as 1 mg/kg in assay [4], 0.01 mg/kg in the assay with Pancreas secretion [3] and 1 mg/kg with heart force of the heart. Further, in the assay on Pancreas secretion [3], the ED (50% increase) was ~1 mg/kg. Further, the ED100 in the assay with stomach ulcers was ~30 mg/kg.

Take `Cc1cccc(C)c1N(CCCC(=O)O)C(=O)c1ccc(Cl)cc1` [(9), N-(p-chlorobenzoyl)-γ-(2,6-dimethylanilino)butyric acid]: the figures for the ED25 in assay [1] and in assay [2] were 10 to 20 mg/kg and ~10 mg/kg, respectively. For the same compound, the minimal effective dose in assay [4] was 1 mg/kg; in the assay on Pancreas secretion [3], 0.01 mg/kg; with heart force of the heart it was 1 to 5 mg/kg. The ED (50% increase) with Pancreas secretion [3] is 0.2 to 0.5 mg/kg. Further, the ED50 with stomach ulcers lay within 0.5 to 1 mg/kg. The ED100 in the assay with stomach ulcers is 1 to 5 mg/kg.

Consider `O=C(O)CCCN(C(=O)c1ccc(Cl)cc1)c1ccc(O)cc1` [(11), N-(p-chlorobenzoyl)-γ-(p-hydroxyanilino)butyric acid], for which, in assay [2], the ED25 was ~10 mg/kg. Moreover, the minimal effective dose in assay [4] is 1 to 5 mg/kg; in the assay with Pancreas secretion [3], 0.5 mg/kg; with heart force of the heart, ~1 mg/kg. For the same compound, the ED (50% increase) in the assay with Pancreas secretion [3] was ~0.7 mg/kg.

Take `CC(=O)N(CCCC(=O)O)c1cccc(Cl)c1` [(12), N-acetyl-γ-(m-chloroanilino)butyric acid]: in the assay with Pancreas secretion [3], the ED (50% increase) was ~1 mg/kg and the minimal effective dose is 0.1 mg/kg. For the same compound, in the assay with heart force of the heart, the minimal effective dose is 2.5 mg/kg.
